Measured values reported in US12679812B2, “18F-labeled triazole containing PSMA inhibitors” (Cornell University, priority 2016, dated 2026).
Values joined by “and” are separate entries in the source; they are usually repeats but may differ in a detail not shown here. Equal entries are not always repeated. Marks after values point to notes of the source that are not given here.

Tests used:
[1] = target: T1, PSMA on LNCaP cells (Homo sapiens, UniProt Q04609); assay: Competitive binding assay against 99mTc-MIP-1427 for binding to PSMA on LNCaP cells; conditions: non-radioactive fluorine-containing ligands, 1 nM 99mTc-MIP-1427, 1 hour
T1 construct: host or cells: LNCaP
Procedure: Cell Culture. The human prostate cancer cell line, LNCaP, was obtained from the American Type Culture Collection. Cell culture supplies were from Invitrogen unless otherwise noted. LNCaP cells were maintained in RPMI-1640 medium supplemented with 10% fetal bovine serum (Hyclone), 4 mM L-glutamine, 1 mM sodium pyruvate, 10 mM N-2-hydroxyethylpiperazine-N-2-ethanesulfonic acid (HEPES), 2.5 mg/mL D-glucose, and 50 μg/mL gentamicin in a humidified incubator at 37° C./5% C02. Cells were removed from flasks for passage or for transfer to 12-well assay plates by incubating them with 0.25% trypsin/ethylenediaminetetraacetic acid (EDTA).
In vitro determination of IC50. IC50 values of the non-radioactive fluorine-containing ligands were determined by screening in a multi-concentration competitive binding assay against ^99mTc-((7S,12S,16S)-1-(1-(carboxymethyl)-1H-imidazol-2-yl)-2-((1-(carboxymethyl)-1H-imidazol-2-yl)methyl)-9,14-dioxo-2,8,13,15-tetraazaoctadecane-7,12,16,18-tetracarboxylic acid technetium tricarbonyl complex) (^99mTc-MIP-1427) for binding to PSMA on LNCaP cells, according to methods previously described. See Hillier S M, Maresca K P, Lu G, Merkin R D, Marquis J C, Zimmerman C N, Eckelman W C, Joyal J L, Babich J W. 99mTc-Labeled Small-Molecule Inhibitors of Prostate-Specific Membrane Antigen for Molecular Imaging of Prostate Cancer. J. Nucl. Med. 2013, 54, 1369-1376, incorporated herein by reference. The LNCaP cells were plated 48 hours prior to the experiment to achieve a density of approximately 5×10^5 cells/well (in triplicate) in RPMI-1640 medium supplemented with 0.25% bovine serum albumin prior to performing the assay. LNCaP cells were incubated for 1 hour with 1 nM ^99mTc-MIP-1427 in serum free RPMI-1640 medium in the presence of 1-10,000 nM test compounds. Radioactive incubation media was then removed by pipette and the cells were washed twice using 1 mL ice-cold HEPES buffer. Cells were harvested from the plates and transferred to tubes for radioactive counting using a Packard Cobra II Gamma Counter. IC50 values were determined by non-linear regression using GraphPad Prism software.

[2] = system: LNCaP xenograft tumor; assay: microPET/CT imaging of LNCaP xenograft tumor-bearing mice; assay type: in vivo; conditions: for Max. LNCaP Tumor Uptake: image derived calculation of tumor uptake (microPET/CT), at time of maximum uptake; for Time p.i. of max. LNCaP tumor uptake: microPET/CT imaging at 1, 2, 4, 6 h; for Route of clearance / excretion: from microPET/CT images
Procedure: (§1) Inoculation of mice with xenografts. All animal studies were approved by the Institutional Animal Care and Use Committee of Weill Cornell Medicine and were undertaken in accordance with the guidelines set forth by the USPHS Policy on Humane Care and Use of Laboratory Animals. Animals were housed under standard conditions in approved facilities with 12 h light/dark cycles. Food and water was provided ad libitum throughout the course of the studies. Male inbred athymic nu/nu mice were purchased from The Jackson Laboratory. For inoculation in mice, LNCaP cells were suspended at 4×10^7 cells/mL in a 1:1 mixture of PBS:Matrigel (BD Biosciences). Each mouse was injected in the left flank with 0.25 mL of the cell suspension. The mice were imaged when the tumors reached approximately 200-400 mm^3, while biodistributions were conducted when tumors were in the range 100-400 mm^3.
Imaging. […] Specific activity was greater than […]. The mice were imaged by pPET/CT (Inveon™; Siemens Medical Solutions, Inc.) at 1 h, 2 h, 4 h, and 6 h post-injection ([^18F]fluorinated compounds) or 1 h and 3 h post-injection ([^68Ga]Ga-PSMA-HBED-CC). Total acquisition time was thirty minutes, and a CT scan was obtained either immediately before or immediately after the acquisition for both anatomical co-registration and attenuation correction. The data were reconstructed using the commercial Inveon™ software supplied by the vendor. Tumor uptake was estimated by drawing a region of interest (ROI).

[3] = system: LNCaP xenograft tumor; assay: Ex vivo biodistribution in LNCaP xenograft tumor-bearing mice; conditions: for Max. LNCaP Tumor Uptake: biodistribution, n=5
Procedure: as §1
Biodistribution. LNCaP xenograft tumor-bearing mice (n=5 per time point) were injected via the tail vein with a bolus injection of 370 kBq (10 μCi) of either [^18F]RPS-040 or [^18F]RPS-041. The specific activity of the compounds was […], respectively. The mice were euthanized by asphyxiation under isofluorane at 1 h, 2 h and 4 h post injection. An additional set of mice (n=5) was co-administered [^18F]RPS-040 (370 kBq; 10 μCi) and 2-PMPA (approx. 250 μg; 10 mg/kg) and sacrificed at 1 h post injection to determine the uptake specificity. A full biodistribution study was conducted on all mice, and tissues were excised, weighed and counted in an automated γ-counter. Tissue time-activity values were expressed as percentage injected dose per gram of tissue (% ID/g). Statistical comparisons were performed using the standard Student's t-test for a 95% confidence interval.

[4] = system: LNCaP tumor xenografts; conditions: 1 h post injection, reported; cited from earlier work

T1 sequence (Q04609 whole entry): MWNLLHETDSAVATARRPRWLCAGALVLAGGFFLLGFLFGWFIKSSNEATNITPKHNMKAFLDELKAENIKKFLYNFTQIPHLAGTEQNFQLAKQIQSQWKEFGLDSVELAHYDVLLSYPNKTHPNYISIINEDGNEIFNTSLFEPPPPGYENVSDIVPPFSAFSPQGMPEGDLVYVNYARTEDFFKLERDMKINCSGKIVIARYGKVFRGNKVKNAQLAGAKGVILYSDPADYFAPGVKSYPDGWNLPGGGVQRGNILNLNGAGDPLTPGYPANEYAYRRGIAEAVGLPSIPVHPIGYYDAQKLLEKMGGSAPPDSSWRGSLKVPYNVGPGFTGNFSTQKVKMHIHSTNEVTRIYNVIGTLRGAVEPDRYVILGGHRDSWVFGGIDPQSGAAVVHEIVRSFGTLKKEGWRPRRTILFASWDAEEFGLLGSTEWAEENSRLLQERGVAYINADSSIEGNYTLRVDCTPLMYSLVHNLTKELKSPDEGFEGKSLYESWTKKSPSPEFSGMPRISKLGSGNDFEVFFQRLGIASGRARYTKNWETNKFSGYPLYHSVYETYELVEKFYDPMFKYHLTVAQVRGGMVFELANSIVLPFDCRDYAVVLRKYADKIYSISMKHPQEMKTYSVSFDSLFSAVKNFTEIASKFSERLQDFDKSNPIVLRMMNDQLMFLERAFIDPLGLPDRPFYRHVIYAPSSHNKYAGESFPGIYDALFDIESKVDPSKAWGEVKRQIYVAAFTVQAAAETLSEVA

SMILES	IC50 [1] [µM]	Max. LNCaP Tumor Uptake [2]	Time p.i. of max. LNCaP tumor uptake [2] [h]	Route of clearance / excretion [2]	further results
O=C(O)CC[C@H](NC(=O)N[C@@H](CCCCNC(=O)Nc1ccc(OCc2cn(CCF)nn2)cc1)C(=O)O)C(=O)O [RPS-038, (((S)-1-Carboxy-5-(3-(4-((1-(2-fluoroethyl)-1H-1,2,3-triazol-4-yl)methoxy)phenyl)ureido)pentyl)carbamoyl)-L-glutamic acid]	0.0213	8.87 ± 0.64^c % ID/g	2		
O=C(O)CC[C@H](NC(=O)N[C@@H](CCCCNC(=O)Nc1ccccc1OCc1cn(CCF)nn1)C(=O)O)C(=O)O [RPS-039, (((S)-1-Carboxy-5-(3-(2-((1-(2-fluoroethyl)-1H-1,2,3-triazol-4-yl)methoxy)phenyl)ureido)pentyl)carbamoyl)-L-glutamic acid]	0.014	5.87±0.27 % ID/g and 5.89 ± 0.27^c % ID/g	2	clearance via the hepatobiliary pathway in addition to renal clearance	
O=C(O)CCC(NC(=O)NC(CCCCNC(=O)c1ccc(F)nc1)C(=O)O)C(=O)O (centres unmarked) [DCFPyL, 2-(3-{1-Carboxy-5-[(6-fluoropyridine-3-carbonyl)-amino]-pentyl}-ureido)-pentanedioic acid, reference compound]		5.71 ± 0.61^c % ID/g	1		SUVmax [4]: 1.1±0.1; Tumor washout ([2]; microPET/CT imaging up to 6 h post injection): rapid tumor washout

Second part, led by results:

IC50 [1] [µM]	Max. LNCaP Tumor Uptake [2]	Time p.i. of max. LNCaP tumor uptake [2] [h]	SMILES	Route of clearance / excretion [2]	further results
0.0032	12.51 % ID/g		O=C(O)CC[C@H](NC(=O)N[C@@H](CCCCNC(=O)Nc1ccc(-c2cn(CCF)nn2)cc1)C(=O)O)C(=O)O [RPS-041, (((S)-1-Carboxy-5-(3-(4-(1-(2-fluoroethyl)-1H-1,2,3-triazol-4-yl)phenyl)ureido)pentyl)carbamoyl)-L-glutamic acid]		Tumor-to-blood ratio ([3]; 1 h post injection): 20.78±7.87; Tumor-to-blood ratio relative to [68Ga]Ga-PSMA-HBED-CC ([3]; 1 h post injection): more than two-fold; Tumor-to-kidney ratio (contrast) relative to [68Ga]Ga-PSMA-HBED-CC ([3]; 1 h post injection): twelve-fold greater; Contrast (tumor-to-background) relative to [18F]RPS-040 ([3]; 2 h post injection): two-fold greater; Uptake in the kidneys ([3]; 2 h post injection): 23.93±5.45 % ID/g; Uptake in the liver ([3]; 2 h post injection): 2.51±0.21 % ID/g; Uptake in the spleen ([3]; 2 h post injection): 1.13±0.47 % ID/g; Tumor-to-blood ratio ([3]; 4 h post injection): 118.4±69.4; Tumor uptake relative to [68Ga]Ga-PSMA-HBED-CC ([3]; at the time of maximum tumor uptake): nearly two-fold greater; Time p.i. of max. LNCaP tumor uptake ([3]; biodistribution at 1, 2, 4 h): 2 h; Max. LNCaP Tumor Uptake ([3]; 2 h post injection): 10.86 ± 1.03^ % ID/g; Max. LNCaP Tumor Uptake ([3]; 2 h post injection, listed as [^18F]RPS-041): 10.86±1.03 % ID/g
0.0102	10.06 ± 1.33^c % ID/g	2	O=C(O)CC[C@H](NC(=O)N[C@@H](CCCCNC(=O)Nc1ccccc1-c1cn(CCF)nn1)C(=O)O)C(=O)O [RPS-042, (((S)-1-Carboxy-5-(3-(2-(1-(2-fluoroethyl)-1H-1,2,3-triazol-4-yl)phenyl)ureido)pentyl)carbamoyl)-L-glutamic acid]	clearance via the hepatobiliary pathway in addition to renal clearance	
